Measurements reported in patent US10052381B2, “Classifiers of NF-κB pathway activation, devices, and methods of use thereof” (Emory University, priority 2012, dated 2018).

What was measured:
Type in all cases: cell-based
[1] = system: p100 gene classifier (noncanonical NF-κB pathway); experiment: nCounter gene expression of the p100 classifier in DLBCL cell lines after drug treatment
Protocol: (§1) FIG. 5A illustrates that rituximab increases the apoptotic effect of doxorubicin when it is associated with suppression of p105 and induction of p100 classifier gene expression. Boxplot of p100 and p105 gene list illustrating the changes in gene expression in cells treated with doxorubicin ([…]) or rituximab ([…]). Cells were treated for 24 hours and the percent of live cells was measured using an ImageXpress 5000A Automated Acquisition and Analysis System (Molecular Devices), quantitating for Yo-pro-1 or PI-negative cells.
(§2) Given the capacity of the p105 classifier to predict a better response to RCHOP, the extent to which both classifiers were targeted by rituximab was investigated. In this investigation, the pathway dysregulation in a series of DLBCL cell lines and their changes in gene expression produced by DNA damaging agent (doxorubicin) and rituximab was measured. Based on their known baseline pattern of NF-κB activation, cell lines with enhanced (OCI-LY3, OCI-LY10) and suppressed (OCI-LY19 and OCI-LY2) NF-κB activation were selected for further testing (FIG. 5A).
(§3) nCounter Analysis System technology was developed by NanoString Technologies. In brief, nCounter™ assay was performed using 100 ng of total RNA or 2 μL of tissue lysate per replicate. The nCounter CodeSet for these studies contained probe pairs for 47 test and 3 control genes. All 47 genes and controls (n=3) were assayed simultaneously in multiplexed reactions. […] Subsequently, supervised complete linkage agglomerative hierarchical clustering analysis was performed.

[2] = system: p105 gene classifier (canonical NF-κB pathway); experiment: nCounter gene expression of the p105 classifier in DLBCL cell lines after drug treatment
Protocol: as §1, §2, §3

[3] = system: DLBCL cell lines OCI-LY3, OCI-LY10, OCI-LY19 and OCI-LY2; experiment: Apoptosis studies (Yo-pro-1 / PI negative live cells, ImageXpress); settings: rituximab alone, titrating doses, 24 hours; all four cell lines
Protocol: To assess the consequence of rituximab's functional effects, the degree of apoptosis produced after treating all four cell lines with titrating doses of doxorubicin and rituximab was measured.
For apoptosis studies, 10^4 cells were treated with titrating doses of doxorubicin (titrating doses: […], Sigma) or rituximab (titrating doses: 1.5, 2.5, 5, 10 and 20 mg/mL, Biogen Idec Inc). Twenty four hours later cells were stained with Yo-pro-1 iodide and propidium Iodide (PI, both from Invitrogen). Live cells were measured using an ImageXpress 5000A Automated Acquisition and Analysis System (Molecular Devices), quantitating for Yo-pro-1 iodide and PI negative cells.

[4] = doxorubicin alone, OCI-LY3, OCI-LY10 cells
[5] = rituximab with doxorubicin, NF-κB activated cell lines (OCI-LY3, OCI-LY10)

| Molecule | gene expression of p100 target genes [1, 4] | gene expression of p105 target genes [2, 4] | change in expression of p100 classifier ([1]; OCI-LY2 and OCI-LY19 cells) | effect on doxorubicin's induction of p100 gene classifier [1, 5] | degree of apoptosis [3] | change in expression of p105 classifier ([2]; OCI-LY2 and OCI-LY19 cells) | effect on doxorubicin's induction of p105 gene classifier [2, 5] |
| --- | --- | --- | --- | --- | --- | --- | --- |
| COc1cccc2c1C(=O)c1c(O)c3c(c(O)c1C2=O)C[C@@](O)(C(=O)CO)C[C@@H]3O[C@H]1C[C@H](N)[C@H](O)[C@H](C)O1 [doxorubicin] | moderately induced | moderately induced |  |  |  |  |  |
| rituximab |  |  | minimally changed | enhanced the induction | did not induce significant apoptosis beyond background levels | minimally changed | suppressed doxorubicin's induction |
